One molecule from PubChem BioAssay (NCI) can be followed below.

Common to all, as to experiment: NCI-60 cell line screen, 48 h
The test system of test [1] is LXFL 529 NSCLC.
Test [2] relates to M19-MEL melanoma.
Test [3] deals with DMS 114 small cell lung.
For test [4], the system named is SNB-78 CNS.
Test [5] deals with XF 498 CNS.
Test [6] deals with KM20L2 colon.

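Following 48 hours of exposure in 96-well plates, responses at five concentrations were used to interpolate endpoints linearly. The concentration for full growth arrest is given as TGI.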

Regarding `O=C(Nc1ccc(Cl)cc1)C(=O)C(C(=O)c1ccccc1-c1ccccc1)C1OC(=O)c2ccccc21` (stereo unspecified), the TGI in test [1] was 34.2 µM; in test [2], 41.6 µM; in test [3], 38.8 µM; in test [4] it was above 100 µM; in test [5] it was 36.6 µM; in test [6] it was 55.6 µM.
